Measured values taken from PMC11393638 (Regulatory toxicology and pharmacology : RTP, 2023).
Read-outs that look alike come from different tables or passages of the source. Marks after values point to notes of the source that are not given here.

Columns and labels:
[1] = tested on: CYP2C19-expressing TK6 cells; test: TK and HPRT gene mutation assays in CYP2C19-expressing TK6 cells; assay type: cell-based, human; conditions: 4-h treatment
hamster V79 cells = conditions: without exogenous activation; ref Brambilla et al., 1989; cited from earlier work
[2] = tested on: tester strains TA98 or TA100; conditions: 1 mg/plate; Aroclor 1254-induced rat liver S9; ref Zhang et al., 1983; cited from earlier work
[3] = tested on: CYP2C19-expressing HepG2 cells; conditions: 24 h without exogenous metabolism, additional 16 h
[4] = tested on: TK6 cells transduced with CYP2A6; conditions: up to 10 μM; 24 h
tester strains = conditions: preliminary study; these concentrations and above
[5] = tested on: TK6 cells transduced with CYP2E1; conditions: up to 10 μM; 24 h
[6] = tested on: TK6 cells transduced with CYP3A4; conditions: up to 10 μM; 24 h
TK6 cells [7] = test: TK and HPRT gene mutation assays in TK6 cells with hamster liver S9
primary rat hepatocytes = conditions: 10 μM to 100 μM; 20-h exposure; ref Robbiano et al., 1991; cited from earlier work
[8] = tested on: hepatocytes of Sprague-Dawley rats; conditions: single dose of 1000 mg/kg; ref Martelli et al., 1994; cited from earlier work
[9] = tested on: TK6 cells transduced with CYP2C19; conditions: 24 h without exogenous metabolism
HepG2 cells = conditions: 24 h without exogenous metabolism, additional 16 h
[10] = tested on: primary human hepatocytes; conditions: 10 μM to 100 μM; 20-h exposure; ref Robbiano et al., 1991; cited from earlier work
TA1537 = conditions: 0–200 μg/plate
TA98 = conditions: for BMD50L / BMD50U: CES 0.5
TK6 cells [11] = test: In vitro micronucleus assay in TK6 cells; conditions: for %MN frequency with hamster liver S9: 4-h (2% S9) and 24-h (0.4% S9) treatments
2D HepaRG cells = conditions: 24 h; 2D cultures
WP2 uvrA (pKM101) = conditions: 0–200 μg/plate
TK6 cells [12] = test: In vitro MultiFlow DNA damage assay in TK6 cells
[13] = tested on: TK6 cells transduced with CYP2C8; conditions: up to 10 μM; 24 h
[14] = tested on: tester strains TA1535, TA1537, TA1538, TA92, TA98, and TA100; conditions: maximum concentration 1.4 μmol/plate (404 μg/plate); with and without Aroclor 1254-induced rat liver S9; ref Raisfeld-Danse and Chen, 1983; cited from earlier work
[15] = tested on: TK6 cells transduced with CYP2D6; conditions: up to 10 μM; 24 h
3D HepaRG spheroids = conditions: 24 h; 3D cultures
[16] = tested on: CYP2C19-expressing TK6 cells; conditions: 4- and 24-h exposures
TA100 = conditions: for BMD50L / BMD50U: CES 0.5
TA1535 = conditions: for BMD50L / BMD50U: CES 0.5
TK6 cells [17] = conditions: up to 10 mM; 1% rat liver S9; ref Liviac et al., 2011; cited from earlier work
TK6 cells [18] = conditions: 2% Aroclor-1254-induced rat liver S9; ref Bernacki et al., 2016; cited from earlier work
[19] = 50 μM, 4-h treatment, TK6 cells with 1% hamster liver S9
[20] = 100 μM, 4-h treatment, TK6 cells with 1% hamster liver S9
[21] = 200 μM, 4-h treatment, TK6 cells with 1% hamster liver S9
[22] = 300 μM, 4-h treatment, TK6 cells with 1% hamster liver S9
[23] = TA98, 10% hamster liver S9, preincubation 30 min
[24] = TA98, 10% hamster liver S9, preincubation 60 min
[25] = TA98, 10% rat liver S9, preincubation 30 min
[26] = TA98, 10% rat liver S9, preincubation 60 min
[27] = TA98, 30% hamster liver S9, preincubation 30 min
[28] = TA98, 30% hamster liver S9, preincubation 60 min
[29] = TA98, 30% rat liver S9, preincubation 30 min
[30] = TA98, 30% rat liver S9, preincubation 60 min
[31] = TA98, without S9, preincubation 30 min
[32] = TA98, without S9, preincubation 60 min
[33] = 0–200 μg/plate, S9 activation required
[34] = 10% hamster liver S9, preincubation 30 min
[35] = 10% hamster liver S9, preincubation 60 min
[36] = 10% rat liver S9, preincubation 30 min
[37] = 10% rat liver S9, preincubation 60 min
[38] = 30% hamster liver S9, preincubation 30 min
[39] = 30% hamster liver S9, preincubation 60 min
[40] = 30% rat liver S9, preincubation 30 min
[41] = 30% rat liver S9, preincubation 60 min
[42] = without S9, preincubation 30 min
[43] = without S9, preincubation 60 min

O=[N+]([O-])c1cc[n+]([O-])c2ccccc12 [4NQO, reference compound]
HPRT gene MF ([1]; 0.1 μg/mL (positive control)): 34.1^c × 10^−6
Relative survival (%) ([1]; 0.1 μg/mL (positive control)): 59.9%
TK gene MF ([1]; 0.1 μg/mL (positive control)): 69.2^c × 10^−6

CN(N=O)C1=Nc2ccc(Cl)cc2C(c2ccccc2)=[N+]([O-])C1 [N-nitroso chlordiazepoxide]
HPRT mutations (hamster V79 cells): induce concentration-dependent HPRT mutations

CC(C)N(CC(O)COc1cccc2ccccc12)N=O (stereo not drawn) [NNP, N-nitroso propranolol]
Mutations in the Ames test [2]: did not induce mutations
%MN [3]: concentration-dependent increase
Lowest observed adverse effect level (LOAEL) for %MN [3]: 2 µM
Effect on %MN and cytotoxicity [4]: no effect
Concentrations with considerable toxicity in the Ames test (tester strains): 100–500 μg/plate
Effect on %MN and cytotoxicity [5]: no effect
Effect on %MN and cytotoxicity [6]: no effect
HPRT gene MF (TK6 cells [7]; [19]): 4.2^c × 10^−6
TK gene MF (TK6 cells [7]; [19]): 15.5^c × 10^−6
HPRT gene MF (TK6 cells [7]; [20]): 7.0^c × 10^−6
TK gene MF (TK6 cells [7]; [20]): 21.8^c × 10^−6
HPRT gene MF (TK6 cells [7]; [21]): 3.2^c × 10^−6
TK gene MF (TK6 cells [7]; [21]): 17.8^c × 10^−6
HPRT gene MF (TK6 cells [7]; [22]): 2.6^c × 10^−6
TK gene MF (TK6 cells [7]; [22]): 16.5^c × 10^−6
Concentrations producing overt cytotoxicity (TK6 cells [7]; preliminary concentration range-finding study, 1% hamster liver S9, 4 h): ≥ 400 µM
DNA fragmentation and unscheduled DNA synthesis (UDS) (primary rat hepatocytes): concentration-dependent increase
Micronucleus (MN) formation in hepatocytes [8]: induced micronucleus (MN) formation
Lowest concentration causing a statistically significant increase in %MN [9]: 0.0625 µM
Cytotoxicity or MN formation (HepG2 cells): did not cause any cytotoxicity or MN formation
HPRT gene MF ([1]; 0.0625 μM, no S9): 4.5^c × 10^−6
TK gene MF ([1]; 0.0625 μM, no S9): 13.2 × 10^−6
HPRT gene MF ([1]; 0.125 μM, no S9): 6.5^c × 10^−6
TK gene MF ([1]; 0.125 μM, no S9): 18.6^c × 10^−6
HPRT gene MF ([1]; 0.5 μM, no S9): 23.0^c × 10^−6
TK gene MF ([1]; 0.5 μM, no S9): 28.5^c × 10^−6
DNA fragmentation and unscheduled DNA synthesis (UDS) [10]: concentration-dependent increase
Mutagenic response in the Ames test (overall) (TA1537): negative
Mutagenic response in the Ames test (overall) (TA98; TA98, 0–200 μg/plate, preincubation method): mutagenic both in the presence and absence of S9
BMD50L (TA98; [23]): 5.7 μg/plate
BMD50U (TA98; [23]): 10.1 μg/plate
BMD50L (TA98; [24]): 6.9 μg/plate
BMD50U (TA98; [24]): 14.5 μg/plate
BMD50L (TA98; [25]): 7.9 μg/plate
BMD50U (TA98; [25]): 13.0 μg/plate
BMD50L (TA98; [26]): 7.2 μg/plate
BMD50U (TA98; [26]): 11.5 μg/plate
BMD50L (TA98; [27]): 12.8 μg/plate
BMD50U (TA98; [27]): 21.4 μg/plate
BMD50L (TA98; [28]): 18.3 μg/plate
BMD50U (TA98; [28]): 30.3 μg/plate
BMD50L (TA98; [29]): 16.2 μg/plate
BMD50U (TA98; [29]): 27.0 μg/plate
BMD50L (TA98; [30]): 22.4 μg/plate
BMD50U (TA98; [30]): 36.8 μg/plate
BMD50L (TA98; [31]): 9.8 μg/plate
BMD50U (TA98; [31]): 24.7 μg/plate
BMD50L (TA98; [32]): 9.3 μg/plate
BMD50U (TA98; [32]): 15.4 μg/plate
Solvent effect on mutagenicity in TA98 (TA98; dissolved in acetone, methanol, or DMSO): very similar mutational responses
%MN frequency with hamster liver S9 (TK6 cells [11]): concentration-dependent increase
Cytotoxicity after metabolic activation by hamster liver S9 (TK6 cells [11]; 4-h and 24-h treatments): displayed cytotoxicity
Effect on %MN and cytotoxicity (TK6 cells [11]; non-CYP-transduced TK6 cells, up to 10 μM, 24 h): no effect
MN formation over vehicle controls (TK6 cells [11]; without exogenous metabolism, up to 100 μM, 24 h): did not result in any increase in MN formation
Lowest concentration that induced positive responses (Comet) (2D HepaRG cells): 50 µM
Mutagenic response in the Ames test (overall) (WP2 uvrA (pKM101)): negative
γH2A.X (TK6 cells [12]; 4-h treatment with 2% hamster S9): concentration-dependent increase
γH2A.X (TK6 cells [12]; 24-h treatment with 0.4% hamster S9, 10 μM (highest concentration, cytotoxic)): level decreased
γH2A.X (TK6 cells [12]; 24-h treatment with 0.4% hamster S9, 2.5 and 5.0 μM): induced increases
Phosphorylation of histone H3 (aneugen marker) (TK6 cells [12]; data not shown): did not increase
γH2A.X fluorescence (TK6 cells [12]; without S9): did not induce any increase
γH2A.X compared to the vehicle control (TK6 cells [12]; without S9, 100 μM): statistically significant decrease
Effect on %MN and cytotoxicity [13]: no effect
Mutagenicity in the Ames test [14]: negative
Effect on %MN and cytotoxicity [15]: no effect
Lowest concentration that induced positive responses (Comet) (3D HepaRG spheroids): 25 µM
Nuclear P53 [16]: only caused increases in nuclear P53 after 24 h
Mutagenic response in the Ames test (overall) (TA100; [33]): positive mutagenic responses
BMD50L (TA100; [34]): 5.9 μg/plate
BMD50U (TA100; [34]): 21.1 μg/plate
BMD50L (TA100; [35]): 14.1 μg/plate
BMD50U (TA100; [35]): 34.4 μg/plate
BMD50L (TA100; [36]): Negative
BMD50L (TA100; [37]): Negative
BMD50L (TA100; [38]): 7.3 μg/plate
BMD50U (TA100; [38]): 19.9 μg/plate
BMD50L (TA100; [39]): 24.7 μg/plate
BMD50U (TA100; [39]): 62.2 μg/plate
BMD50L (TA100; [40]): Negative
BMD50L (TA100; [41]): Negative
BMD50L (TA100; [42]): Negative
BMD50L (TA100; [43]): Negative
Mutagenic response in the Ames test (overall) (TA1535; [33]): positive mutagenic responses
BMD50L (TA1535; [34]): 0.9 μg/plate
BMD50U (TA1535; [34]): 3.4 μg/plate
BMD50L (TA1535; [35]): 2.1 μg/plate
BMD50U (TA1535; [35]): 6.5 μg/plate
BMD50L (TA1535; [36]): 36.1 μg/plate
BMD50U (TA1535; [36]): 108.0 μg/plate
BMD50L (TA1535; [37]): Negative
BMD50L (TA1535; [38]): 2.3 μg/plate
BMD50U (TA1535; [38]): 7.7 μg/plate
BMD50L (TA1535; [39]): 2.5 μg/plate
BMD50U (TA1535; [39]): 7.1 μg/plate
BMD50L (TA1535; [40]): Negative
BMD50L (TA1535; [41]): Negative
BMD50L (TA1535; [42]): Negative
BMD50L (TA1535; [43]): Negative

CCN(CC)N=O [NDEA, N-nitrosodiethylamine, reference compound]
HPRT gene MF (TK6 cells [7]; [20]): 23.1^c × 10^−6
Relative survival (%) (TK6 cells [7]; [20]): 66.9%
TK gene MF (TK6 cells [7]; [20]): 44.2^c × 10^−6
MN formation (TK6 cells [17]): did not induce MN formation
%MN frequency with hamster liver S9 (TK6 cells [11]): induced MN
Genotoxic or cytotoxic responses (TK6 cells [18]): failed to biotransform NDEA to produce any genotoxic or cytotoxic responses
